Columns and labels:
Assay type in all cases: biochemical
[1] = molecular target: T1, JAK1 (Homo sapiens, UniProt P23458); test: JAK1 kinase assay (HTRF, inhibition of phosphorylation of a synthetic peptide); conditions: catalytic domain aa 850-1154, GST-tag; 7 μM ATP (Km); read-out: JAK1 kinase inhibitory activity (EC50)
T1 construct: JAK1 (aa 850-1154) and TYK2 (aa 871-1187) are expressed with an N-terminally fused GST-tag; GST (N); purchased Carna Biosciences, Inc; host or cells: baculovirus expression system
Method in brief: (§1)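 Baculovirus-expressed human catalytic domains (GST-JAK1, GST-TYK2, His-JAK2, His-JAK3) phosphorylated 1 μM TK substrate-biotin at ATP Km (JAK1 7 μM, JAK2 4 μM, JAK3 2 μM, TYK2 13 μM) in pH 7.0 Hepes for 20-30 min at RT, 0.75% DMSO. EDTA stop, then overnight streptavidin-XL665/cryptate-antibody detection and HTRF read.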

[2] = molecular target: T2, JAK2 (Homo sapiens, UniProt O60674); test: JAK2 kinase assay (HTRF, inhibition of phosphorylation of a synthetic peptide); conditions: catalytic domain, His-tag; 4 μM ATP (Km); read-out: JAK2 kinase inhibitory activity (EC50)
T2 construct: All four purified enzymes contain only the catalytic domain; His (N); purchased Carna Biosciences, Inc; host or cells: baculovirus expression system
Method in brief: as §1

[3] = molecular target: T3, JAK3 (Homo sapiens, UniProt P52333); test: JAK3 kinase assay (HTRF, inhibition of phosphorylation of a synthetic peptide); conditions: catalytic domain, His-tag; 2 μM ATP (Km); read-out: JAK3 kinase inhibitory activity (EC50)
T3 construct: All four purified enzymes contain only the catalytic domain; His (N); purchased Carna Biosciences, Inc; host or cells: baculovirus expression system
Method in brief: as §1

[4] = molecular target: T4, TYK2 (Homo sapiens, UniProt P29597); test: TYK2 kinase assay (HTRF, inhibition of phosphorylation of a synthetic peptide); conditions: catalytic domain aa 871-1187, GST-tag; 13 μM ATP (Km); read-out: TYK2 kinase inhibitory activity (EC50)
T4 construct: JAK1 (aa 850-1154) and TYK2 (aa 871-1187) are expressed with an N-terminally fused GST-tag; GST (N); purchased Carna Biosciences, Inc; host or cells: baculovirus expression system
T4 sequence (P29597 871-1187): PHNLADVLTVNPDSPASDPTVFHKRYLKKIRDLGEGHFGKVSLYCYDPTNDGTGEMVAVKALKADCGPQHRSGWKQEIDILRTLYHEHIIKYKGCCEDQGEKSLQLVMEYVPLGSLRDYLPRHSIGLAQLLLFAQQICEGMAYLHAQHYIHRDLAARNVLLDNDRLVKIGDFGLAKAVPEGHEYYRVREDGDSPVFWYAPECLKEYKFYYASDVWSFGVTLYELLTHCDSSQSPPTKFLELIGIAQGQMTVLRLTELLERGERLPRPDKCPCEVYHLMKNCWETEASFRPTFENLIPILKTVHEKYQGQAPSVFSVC
Description: JAK1, JAK2, JAK3 and TYK2 Kinase Assays:
Human baculovirus-expressed JAK1, 2, 3 and TYK2 were purchased from Carna Biosciences, Inc. All four purified enzymes contain only the catalytic domain. JAK1 (aa 850-1154) and TYK2 (aa 871-1187) are expressed with an N-terminally fused GST-tag, and JAK2 and JAK3 with an N-terminally fused His-tag. Inhibition of phosphorylation of a synthetic peptide was measured in an HTRF-based assay using the TK substrate-Biotin from the CisbioHTRFKinEASE TK kit. First, 2 μl of TK solution (TK substrate-biotin in kinase buffer [1× enzymatic buffer from HTRFKinEASE TK kit, 1 mM DTT]) is added to a plate containing 1 μl prediluted compound (final assay concentration DMSO: 0.75%). Then, 5 μl kinase-ATP mix (prepared in kinase buffer) is added to the wells and the plates are incubated at RT for 20-30 min. For all four kinases a concentration of ATP that corresponded to the Km for ATP was used. The final concentrations of buffers, substrate, kinase and ATP were: JAK1: 50 mMHepes buffer pH 7.0, 0.01% BSA, 10 mM MgCl2, 1 mM DTT, 7 μM ATP, 50 nMSEB, 1 μM TK Substrate-Biotin and 5 ng JAK1; JAK2: 50 mM Hepes buffer pH 7.0, 0.01% BSA, 5 mM MgCl2, 1 mM DTT, 4 μM ATP, 1 μM TK Substrate-Biotin and 0.1 ng JAK2; JAK3: 50 mMHepes buffer pH 7.0, 0.01% BSA, 5 mM MgCl2, 1 mM DTT, 2 μM ATP, 1 μM TK Substrate-Biotin and 0.3 ng JAK3; TYK2: 50 mMHepes buffer pH 7.0, 0.01% BSA, 5 mM MgCl2, 1 mM DTT, 13 μM ATP, 50 nMSEB, 1 μM TK Substrate-Biotin and 0.8 ng TYK2. Thereafter, the kinase reaction is stopped by adding 4 μl detection mix (final concentrations: 50 mM Hepes buffer pH 7.0, 0.01% BSA, 0.8 M KF, 20 mM EDTA, 42 nM Streptavidin-XL665 and 1:400 STKAbCryptate) and the plates are incubated overnight in the dark. The HTRF signal is read using an Envision plate reader.

T1 sequence (P23458 850-1154): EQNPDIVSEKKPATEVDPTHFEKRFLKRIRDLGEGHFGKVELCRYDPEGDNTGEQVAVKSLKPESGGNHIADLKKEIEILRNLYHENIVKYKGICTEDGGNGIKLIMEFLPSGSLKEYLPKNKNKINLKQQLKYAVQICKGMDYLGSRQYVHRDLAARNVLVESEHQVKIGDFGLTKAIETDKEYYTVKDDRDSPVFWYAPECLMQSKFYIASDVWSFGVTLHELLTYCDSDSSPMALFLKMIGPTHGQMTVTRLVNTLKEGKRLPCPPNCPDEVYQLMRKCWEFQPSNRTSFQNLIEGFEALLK
T2 sequence (O60674 849-1124 limits assumed): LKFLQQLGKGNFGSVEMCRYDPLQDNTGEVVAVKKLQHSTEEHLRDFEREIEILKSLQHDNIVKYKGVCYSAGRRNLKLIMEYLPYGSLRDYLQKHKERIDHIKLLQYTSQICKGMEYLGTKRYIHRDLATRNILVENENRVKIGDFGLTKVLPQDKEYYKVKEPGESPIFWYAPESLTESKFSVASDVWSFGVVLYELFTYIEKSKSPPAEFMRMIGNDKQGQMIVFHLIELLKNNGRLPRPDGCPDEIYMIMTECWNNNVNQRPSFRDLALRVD
T3 sequence (P52333 822-1111 limits assumed): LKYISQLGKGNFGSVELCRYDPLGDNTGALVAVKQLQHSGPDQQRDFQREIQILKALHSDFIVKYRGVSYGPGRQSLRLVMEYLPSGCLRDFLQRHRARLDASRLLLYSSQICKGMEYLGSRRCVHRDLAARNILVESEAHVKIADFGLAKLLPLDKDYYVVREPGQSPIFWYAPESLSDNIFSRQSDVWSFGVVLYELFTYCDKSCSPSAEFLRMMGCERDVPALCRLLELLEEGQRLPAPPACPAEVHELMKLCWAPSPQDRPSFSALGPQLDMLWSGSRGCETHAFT

| EC50 [1] | EC50 [2] | EC50 [3] | EC50 [4] | Compound |
| --- | --- | --- | --- | --- |
| > 1000 nM | > 1000 nM | > 1000 nM | > 1000 nM | CCCCN1CCN(c2ncnc3[nH]ccc23)CC2(CC2)C1 [Example 279, 4-(5-butyl-5,8-diazaspiro[2.6]nonan-8-yl)-7H-pyrrolo[2,3-d]pyrimidine] |
| < 100 nM | < 100 nM | 100 to 1000 nM | > 1000 nM | N#Cc1ccc(C(=O)N2CCCN(c3ncnc4[nH]ccc34)CC23CC3)cc1 [Example 56, 4-[5-(7H-pyrrolo[2,3-d]pyrimidin-4-yl)-5,9-diazaspiro[2.6]nonane-9-carbonyl]benzonitrile] |
| 100 to 1000 nM | 100 to 1000 nM | 100 to 1000 nM | > 1000 nM | CCC1=NOC(C(=O)N2CCCN(c3ncnc4[nH]ccc34)CC23CC3)C1 (racemic) [Example 123, (3-ethyl-4,5-dihydroisoxazol-5-yl)-[5-(7H-pyrrolo[2,3-d]pyrimidin-4-yl)-5,9-diazaspiro[2.6]nonan-9-yl]methanone] |
| < 100 nM | < 100 nM | 100 to 1000 nM | > 1000 nM | N#CCOc1ccc(CC(=O)N2CCN(c3ncnc4[nH]ccc34)CC3(CC3)C2)cc1 [Example 16, 2-[4-[2-oxo-2-[5-(7H-pyrrolo[2,3-d]pyrimidin-4-yl)-5,8-diazaspiro[2.6]nonan-8-yl]ethyl]phenoxy]acetonitrile] |
| < 100 nM | < 100 nM | 100 to 1000 nM | 100 to 1000 nM | O=C(c1ccsn1)N1CCCN(c2ncnc3[nH]ccc23)CC12CC2 [Example 201, isothiazol-3-yl-[5-(7H-pyrrolo[2,3-d]pyrimidin-4-yl)-5,9-diazaspiro[2.6]nonan-9-yl]methanone] |
| > 1000 nM | > 1000 nM | > 1000 nM | > 1000 nM | CCCCC(=O)Nc1nc(N2CCN(Cc3ccccc3)CC3(CC3)C2)c2cc[nH]c2n1 [Example 282, N-[4-(5-benzyl-5,8-diazaspiro[2.6]nonan-8-yl)-7H-pyrrolo[2,3-d]pyrimidin-2-yl]pentanamide] |
| 100 to 1000 nM | 100 to 1000 nM | 100 to 1000 nM | > 1000 nM | Cc1cc(S(N)(=O)=O)ccc1C(=O)N1CCN(c2ncnc3[nH]ccc23)CC2(CC2)C1 [Example 71, 3-methyl-4-[5-(7H-pyrrolo[2,3-d]pyrimidin-4-yl)-5,8-diazaspiro[2.6]nonane-8-carbonyl]benzenesulfonamide] |
| < 100 nM | < 100 nM | 100 to 1000 nM | > 1000 nM | S=C(Nc1ccccc1)N1CCCN(c2ncnc3[nH]ccc23)CC12CC2 [Example 91, N-phenyl-5-(7H-pyrrolo[2,3-d]pyrimidin-4-yl)-5,9-diazaspiro[2.6]nonane-9-carbothioamide] |
| < 100 nM | < 100 nM | 100 to 1000 nM | 100 to 1000 nM | O=C(Cc1ccc(C(F)(F)F)cc1)N1CCN(c2ncnc3[nH]ccc23)CC2(CC2)C1 [Example 271, 1-[5-(7H-pyrrolo[2,3-d]pyrimidin-4-yl)-5,8-diazaspiro[2.6]nonan-8-yl]-2-[4-(trifluoromethyl)phenyl]ethanone] |
| > 1000 nM | > 1000 nM | > 1000 nM | > 1000 nM | CCCCC(=O)Nc1nc(N2CCCNC3(CC3)C2)c2cc[nH]c2n1 [Example 295] |
| 100 to 1000 nM | 100 to 1000 nM | 100 to 1000 nM | > 1000 nM | N#Cc1ccc(C(=O)N2CCN(c3ncnc4[nH]ccc34)CC3(CC3)C2)cc1 [Example 62, 4-[5-(7H-pyrrolo[2,3-d]pyrimidin-4-yl)-5,8-diazaspiro[2.6]nonane-8-carbonyl]benzonitrile] |
| 100 to 1000 nM | < 100 nM | 100 to 1000 nM | > 1000 nM | Cc1c(S(N)(=O)=O)csc1C(=O)N1CCN(c2ncnc3[nH]ccc23)CC2(CC2)C1 [Example 25, 4-methyl-5-[5-(7H-pyrrolo[2,3-d]pyrimidin-4-yl)-5,8-diazaspiro[2.6]nonane-8-carbonyl]thiophene-3-sulfonamide] |
| < 100 nM | < 100 nM | 100 to 1000 nM | 100 to 1000 nM | O=C(C1CCCCC1)N1CCCN(c2ncnc3[nH]ccc23)CC12CC2 [Example 93, cyclohexyl-[5-(7H-pyrrolo[2,3-d]pyrimidin-4-yl)-5,9-diazaspiro[2.6]nonan-9-yl]methanone] |
| > 1000 nM | > 1000 nM | > 1000 nM | > 1000 nM | c1nc(N2CCNCC3(CC3)C2)c2cc[nH]c2n1 [Example 290] |
| < 100 nM | < 100 nM | 100 to 1000 nM | 100 to 1000 nM | O=C(c1ccc[nH]1)N1CCCN(c2ncnc3[nH]ccc23)CC12CC2 [Example 255, [5-(7H-pyrrolo[2,3-d]pyrimidin-4-yl)-5,9-diazaspiro[2.6]nonan-9-yl]-(1H-pyrrol-2-yl)methanone] |
| 100 to 1000 nM | 100 to 1000 nM | > 1000 nM | > 1000 nM | CCCCS(=O)(=O)N1CCN(c2ncnc3[nH]ccc23)CC2(CC2)C1 [Example 97, 4-(8-butylsulfonyl-5,8-diazaspiro[2.6]nonan-5-yl)-7H-pyrrolo[2,3-d]pyrimidine] |
| < 100 nM | < 100 nM | 100 to 1000 nM | 100 to 1000 nM | Cc1ccc(C(=O)N2CCN(c3ncnc4[nH]ccc34)CC3(CC3)C2)cc1S(N)(=O)=O [Example 38, 2-methyl-5-[5-(7H-pyrrolo[2,3-d]pyrimidin-4-yl)-5,8-diazaspiro[2.6]nonane-8-carbonyl]benzenesulfonamide] |
| < 100 nM | < 100 nM | < 100 nM | 100 to 1000 nM | Cc1sc(C(=O)N2CCN(c3ncnc4[nH]ccc34)CC3(CC3)C2)cc1S(N)(=O)=O [Example 24, 2-methyl-5-[5-(7H-pyrrolo[2,3-d]pyrimidin-4-yl)-5,8-diazaspiro[2.6]nonane-8-carbonyl]thiophene-3-sulfonamide] |
| > 1000 nM | > 1000 nM | > 1000 nM | > 1000 nM | COc1ncccc1C(=O)N1CCN(c2ncnc3[nH]ccc23)CC2(CC2)C1 [Example 4, (2-Methoxypyridin-3-yl)-[8-(7H-pyrrolo[2,3-d]pyrimidin-4-yl)-5,8-diazaspiro[2.6]non-5-yl]methanone] |
| 100 to 1000 nM | 100 to 1000 nM | 100 to 1000 nM | > 1000 nM | N#CCCC(=O)N1CCN(c2ncnc3[nH]ccc23)CCC12CC2 [Example 49, 4-oxo-4-[6-(7H-pyrrolo[2,3-d]pyrimidin-4-yl)-6,9-diazaspiro[2.6]nonan-9-yl]butanenitrile] |
| < 100 nM | < 100 nM | < 100 nM | 100 to 1000 nM | N#Cc1ccc(C(=O)N2CCCN(c3ncnc4[nH]ccc34)CC23CC3)s1 [Example 120, 5-[5-(7H-pyrrolo[2,3-d]pyrimidin-4-yl)-5,9-diazaspiro[2.6]nonane-9-carbonyl]thiophene-2-carbonitrile] |

— US9586961B2, “Homopiperazine derivatives as protein tyrosine kinase inhibitors and pharmaceutical use thereof” (LEO PHARMA A/S, priority 2010, dated 2017)
